Structures can show the parent of a compound that is named as a salt.
Target: T1, human C3a receptor (C3aR) (Homo sapiens, UniProt Q16581)
T1 construct: expressed in transfected cells
T1 sequence (Q16581 1-482): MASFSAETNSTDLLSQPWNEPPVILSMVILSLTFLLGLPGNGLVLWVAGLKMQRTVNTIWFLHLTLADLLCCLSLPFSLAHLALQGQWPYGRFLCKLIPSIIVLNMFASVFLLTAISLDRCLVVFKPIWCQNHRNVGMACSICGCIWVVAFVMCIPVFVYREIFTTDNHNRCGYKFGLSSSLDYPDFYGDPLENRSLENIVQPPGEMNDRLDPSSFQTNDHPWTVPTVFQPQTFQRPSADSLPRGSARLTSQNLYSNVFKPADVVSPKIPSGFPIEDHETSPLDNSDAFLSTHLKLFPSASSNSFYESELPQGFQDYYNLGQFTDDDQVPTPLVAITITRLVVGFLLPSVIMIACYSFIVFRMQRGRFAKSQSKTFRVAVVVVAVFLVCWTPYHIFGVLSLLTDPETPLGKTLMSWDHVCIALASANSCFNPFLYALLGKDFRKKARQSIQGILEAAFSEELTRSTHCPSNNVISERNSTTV
Assay: Inhibition of human [125I]-C3a binding to human C3a receptor (SPA, membranes of HEK293 cells expressing recombinant C3aR)
Conditions: 0.1 nM [125I]-C3a, 3 hours at room temperature; Table 6
In short: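 HEK293 C3aR membranes were pre-coupled to WGA SPA beads and incubated 3 h at room temperature with 0.1 nM [125I]-C3a in HEPES pH 7.4 buffer containing 0.25% BSA and 0.2% CHAPS, DMSO ≤1%. Nonspecific binding was defined with 1 μM unlabeled C3a. IC50 came from nonlinear least-squares fitting.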

Compound: CC(=N)NCCC[C@H](NC(=O)c1cccn(Cc2ccccc2C(F)(F)F)c1=O)C(=O)O [Compound 107, (2S)-5-(ethanimidoylamino)-2-[({2-oxo-1-[2-(trifluoromethyl)benzyl]-1,2-dihydropyridin-3-yl}carbonyl)amino]pentanoic acid•TFA]
- IC50: 500 to 20000 nM

Compound: CC(=N)NCCC[C@H](NC(=O)c1ccc(C(c2ccccc2)c2ccccc2)cc1)C(=O)O [Compound 108, (2S)-2-({[4-(Diphenylmethyl)phenyl]carbonyl}amino)-5-(ethanimidoylamino)pentanoic acid]
- IC50: 500 to 20000 nM

Compound: CC(=N)NCCC[C@H](NC(=O)c1cccn(Cc2cccc(Br)c2)c1=O)C(=O)O [Compound 109, (2S)-2-({[1-(3-bromobenzyl)-2-oxo-1,2-dihydropyridin-3-yl]carbonyl}amino)-5-(ethanimidoylamino)pentanoic acid•TFA]
- IC50: 50 to 500 nM

Compound: CC(=N)NCCC[C@H](NC(=O)c1cccn(Cc2ccc(Br)cc2)c1=O)C(=O)O [Compound 110, (2S)-2-({[1-(4-bromobenzyl)-2-oxo-1,2-dihydropyridin-3-yl]carbonyl}amino)-5-(ethanimidoylamino)pentanoic acid•TFA]
- IC50: 50 to 500 nM

Compound: N=C(N)NC(=O)CC[C@H](NC(=O)c1ccc(C(c2ccccc2)c2ccccc2)cc1)C(=O)O [Compound 111, (2S)-5-Carbamimidamido-2-({[4-(diphenylmethyl)phenyl]carbonyl}amino)-5-oxopentanoic acid]
- IC50: < 50 nM

Compound: CC(=N)NCCC[C@H](NC(=O)c1cccc(C(c2ccccc2)c2ccccc2)c1)C(=O)O [Compound 112, (2S)-2-({[3-(Diphenylmethyl)phenyl]carbonyl}amino)-5-(ethanimidoylamino)pentanoic acid]
- IC50: 50 to 500 nM

Compound: CC(=N)NCCC[C@H](NC(=O)c1cccn(Cc2ccc(C(F)(F)F)cc2)c1=O)C(=O)O [Compound 113, (2S)-5-(ethanimidoylamino)-2-[({2-oxo-1-[4-(trifluoromethyl)benzyl]-1,2-dihydropyridin-3-yl}carbonyl)amino]pentanoic acid•TFA]
- IC50: 500 to 20000 nM

Compound: CC(=N)NCCC[C@H](NC(=O)c1cccn(Cc2cccc(I)c2)c1=O)C(=O)O [Compound 114, (2S)-5-(ethanimidoylamino)-2-({[1-(3-iodobenzyl)-2-oxo-1,2-dihydropyridin-3-yl]carbonyl}amino)pentanoic acid•TFA]
- IC50: 50 to 500 nM

Compound: CC(=N)NCCC[C@H](NC(=O)c1cccn(Cc2cc(Br)cc(Br)c2)c1=O)C(=O)O [Compound 115, (2S)-2-({[1-(3,5-dibromobenzyl)-2-oxo-1,2-dihydropyridin-3-yl]carbonyl}amino)-5-(ethanimidoylamino)pentanoic acid•TFA]
- IC50: < 50 nM

Compound: CC(=N)NCCC[C@H](NC(=O)c1cccn(Cc2cc(Cl)cc(Cl)c2)c1=O)C(=O)O [Compound 116, (2S)-2-({[1-(3,5-dichlorobenzyl)-2-oxo-1,2-dihydropyridin-3-yl]carbonyl}amino)-5-(ethanimidoylamino)pentanoic acid•TFA]
- IC50: < 50 nM

Compound: CC(=N)NCCC[C@H](NC(=O)c1cccn(Cc2cc(F)cc(F)c2)c1=O)C(=O)O [Compound 117, (2S)-2-({[1-(3,5-difluorobenzyl)-2-oxo-1,2-dihydropyridin-3-yl]carbonyl}amino)-5-(ethanimidoylamino)pentanoic acid•TFA]
- IC50: 50 to 500 nM

Compound: CCCC(=N)NCCC[C@H](NC(=O)c1ccc(C(c2ccccc2)c2ccccc2)s1)C(=O)O [Compound 118, (2S)-5-(butanimidoylamino)-2-({[5-(diphenylmethyl)thiophen-2-yl]carbonyl}amino)pentanoic acid•TFA]
- IC50: 500 to 20000 nM

Compound: N=C(NCCC[C@H](NC(=O)c1ccc(C(c2ccccc2)c2ccccc2)s1)C(=O)O)c1ccccn1 [Compound 119, (2S)-2-({[5-(diphenylmethyl)thiophen-2-yl]carbonyl}amino)-5-{[imino(pyridin-2-yl)methyl]amino}pentanoic acid•TFA]
- IC50: 500 to 20000 nM

Compound: N=C(NCCC[C@H](NC(=O)c1ccc(C(c2ccccc2)c2ccccc2)s1)C(=O)O)c1ccccc1 [Compound 120, (2S)-2-({[5-(diphenylmethyl)thiophen-2-yl]carbonyl}amino)-5-{[imino(phenyl)methyl]amino}pentanoic acid•TFA]
- IC50: 500 to 20000 nM

Compound: N=C(NCCC[C@H](NC(=O)c1ccc(C(c2ccccc2)c2ccccc2)s1)C(=O)O)C1CC1 [Compound 121, (2S)-5-{[cyclopropyl(imino)methyl]amino}-2-({[5-(diphenylmethyl)thiophen-2-yl]carbonyl}amino)pentanoic acid•TFA]
- IC50: 500 to 20000 nM

Compound: COc1ccn(C(c2ccccc2)c2ccccc2)c(=O)c1C(=O)N[C@@H](CCCNC(C)=N)C(=O)O [Compound 122, (2S)-2-({[1-(diphenylmethyl)-4-methoxy-2-oxo-1,2-dihydropyridin-3-yl]carbonyl}amino)-5-(ethanimidoylamino)pentanoic acid•TFA]
- IC50: 500 to 20000 nM

Compound: CCOC(=O)CC(=N)NCCC[C@H](NC(=O)c1ccc(C(c2ccccc2)c2ccccc2)s1)C(=O)O [Compound 123, (2S)-2-({[5-(diphenylmethyl)thiophen-2-yl]carbonyl}amino)-5-[(3-ethoxy-3-oxopropanimidoyl)amino]pentanoic acid•TFA]
- IC50: 500 to 20000 nM

Compound: CC(=N)NCCC[C@H](NC(=O)c1ccc(C(c2ccc(C)cc2)c2ccc(C)cc2)s1)C(=O)O [Compound 124, (2S)-2-[({5-[bis(4-methylphenyl)methyl]thiophen-2-yl}carbonyl)amino]-5-(ethanimidoylamino)pentanoic acid•TFA]
- IC50: 500 to 20000 nM

Compound: CC(=N)NCCC[C@H](NC(=O)c1ccc(C(c2ccc(Cl)cc2)c2ccc(Cl)cc2)s1)C(=O)O [Compound 125, (2S)-2-[({5-[bis(4-chlorophenyl)methyl]thiophen-2-yl}carbonyl)amino]-5-(ethanimidoylamino)pentanoic acid•TFA]
- IC50: 50 to 500 nM

Compound: CC(=N)NCCC[C@H](NC(=O)c1ccc(C(c2ccccc2Cl)c2ccccc2Cl)s1)C(=O)O [Compound 126, (2S)-2-[({5-[bis(2-chlorophenyl)methyl]thiophen-2-yl}carbonyl)amino]-5-(ethanimidoylamino)pentanoic acid•TFA]
- IC50: 500 to 20000 nM

Compound: CC(=N)NCCC[C@H](NC(=O)c1ccc(C(c2cccs2)c2cccs2)s1)C(=O)O [Compound 127]
- IC50: 50 to 500 nM

Compound: CC(=N)NCCC[C@H](NC(=O)c1ccc(C(c2ccc(F)cc2)c2ccc(F)cc2)s1)C(=O)O [Compound 128, (2S)-2-[({5-[bis(4-fluorophenyl)methyl]thiophen-2-yl}carbonyl)amino]-5-(ethanimidoylamino)pentanoic acid•TFA]
- IC50: 50 to 500 nM

Compound: CC(=N)NCCC[C@H](NC(=O)c1ccc(C(c2cccc(F)c2)c2cccc(F)c2)s1)C(=O)O [Compound 129, (2S)-2-[({5-[bis(3-fluorophenyl)methyl]thiophen-2-yl}carbonyl)amino]-5-(ethanimidoylamino)pentanoic acid•TFA]
- IC50: 50 to 500 nM

Compound: CC(=N)NCCC[C@H](NC(=O)c1ccc(C(c2cccc(C(F)(F)F)c2)c2cccc(C(F)(F)F)c2)s1)C(=O)O [Compound 130, (2S)-2-{[(5-{Bis[3-(trifluoromethyl)phenyl]methyl}thiophen-2-yl)carbonyl]amino}-5-(ethanimidoylamino)pentanoic acid]
- IC50: 500 to 20000 nM

Compound: CC(=N)NCCC[C@H](NC(=O)c1ccc(C(c2cccc(Cl)c2)c2cccc(Cl)c2)s1)C(=O)O [Compound 131, (2S)-2-[({5-[bis(3-chlorophenyl)methyl]thiophen-2-yl}carbonyl)amino]-5-(ethanimidoylamino)pentanoic acid•TFA]
- IC50: < 50 nM

Compound: CC(C)C(=N)NCCC[C@H](NC(=O)c1ccc(C(c2ccccc2)c2ccccc2)s1)C(=O)O [Compound 132, (2S)-2-({[5-(diphenylmethyl)thiophen-2-yl]carbonyl}amino)-5-[(2-methylpropanimidoyl)amino]pentanoic acid•TFA]
- IC50: 500 to 20000 nM

Compound: N=CNCCC[C@H](NC(=O)c1ccc(C(c2ccccc2)c2ccccc2)s1)C(=O)O [Compound 133, (2S)-2-({[5-(diphenylmethyl)thiophen-2-yl]carbonyl}amino)-5-[(iminomethyl)amino]pentanoic acid•TFA]
- IC50: 50 to 500 nM

Compound: CC(=N)Nc1cccc([C@H](NC(=O)c2ccc(C(c3ccccc3)c3ccccc3)s2)C(=O)O)c1 [Compound 134, (2S)-({[5-(Diphenylmethyl)thiophen-2-yl]carbonyl}amino)[3-(ethanimidoylamino)phenyl]ethanoicacid]
- IC50: 500 to 20000 nM

Compound: CC(=N)Nc1ccc([C@H](NC(=O)c2ccc(C(c3ccccc3)c3ccccc3)s2)C(=O)O)cc1 [Compound 135, (2S)-({[5-(Diphenylmethyl)thiophen-2-yl]carbonyl}amino)[4-(ethanimidoylamino)phenyl]ethanoicacid]
- IC50: 500 to 20000 nM

Compound: C/C(=N\O)NCCC[C@H](NC(=O)c1ccc(C(c2ccccc2)c2ccccc2)s1)C(=O)O [Compound 136, (2S)-2-({[5-(diphenylmethyl)thiophen-2-yl]carbonyl}amino)-5-{[1-(hydroxyamino)ethylidene]amino}pentanoic acid•TFA]
- IC50: 50 to 500 nM

— US20080188528A1, “Modulators of C3a receptor and methods of use thereof” (priority 2006, published 2008)
